Data reported in article PMC5906549, “Cathelicidin-Derived Antimicrobial Peptides Inhibit Zika Virus Through Direct Inactivation and Interferon Pathway” (Frontiers in Immunology, 2018).
Peptide text beside a SMILES is read from it.

System: ZIKV strain MR766
Assay: Extracellular ZIKV RNA in supernatants of infected human fetal astrocytes (real-time RT-PCR)
Type: cell-based, Zika virus
Settings: ZIKV MOI 0.5, 48 h, cell-free supernatants
Experimental: Total mRNA was isolated with TRIzol Reagent (Thermo Fisher Scientific) and RNeasy Mini Kit (QIAGEN Inc., Valencia, CA, USA) following the manufacturer’s recommendations. Two real-time RT-PCR methods were used for the current studies. First, SYBR Green-based RT-PCR assay was used to determine intracellular ZIKV RNA in Vero cells. For this assay, reverse transcription was performed using Verso cDNA synthesis Kit (Thermo Fisher Scientific) and 1 µg of total RNA in a 15-µL final volume. The RT-PCR analyses were performed using 7.5-µL SYBR Green PCR Master Mix (Thermo Fisher Scientific) with 0.5-µL cDNA, 1.5-µL H2O, 5.5-µL oligonucleotide primer pairs at 10 µM. […] GG-3. PCR program: 1, 50°C for 2 min; 2, 95°C for 2 min; 3, 95°C for 15 s; 4, specific annealing temperature for 15 s; 5, 72°C for 1 min. Steps 2–4 were repeated 40 times. All samples were amplified in triplicate for analysis. Relative ZIKV RNA levels were determined and standardized with a GAPDH internal control using comparative ΔΔCT method ([35]). Second, TaqMan-based RT-PCR assay was used to determine intracellular ZIKV RNA and other gene expressions in Figures 3–6 and extracellular ZIKV RNA in Figure 3. The TaqMan assay was performed in a StepOne^TM Real-Time PCR system (Thermo Fisher Scientific). Primers used for TaqMan real-time RT-PCR were all from the Thermo Fisher Scientific, which included ZIKV (forward sequence: 5-[…]-3, reverse sequence: 5- […]-3, and probe sequence: 5′-[…]-3), IFN-α2 (Hs00265051_s1), IFN-β1 (Hs01077958_s1), eukaryotic 18-s rRNA (Hs99999901_s1), β-actin (Hs99999903_m1), and GAPDH (Catalog number: 4310884E). Relative ZIKV mRNA levels were determined and standardized with a GAPDH or 18-s rRNA endogenous control using comparative ΔΔCT method ([35]). […] Quantitative genomic RNA from ZIKV (NR-1838DQ, ATCC) was used as a standard to calculate viral copies.
(A) Human fetal astrocytes were treated with doses of the selected peptides ranging from 1 to 50 µM. […] Cell viability was determined by a colorimetric MTS assay. […] Data were analyzed by nonlinear regression and assessed the EC50 for each of the antimicrobial peptides. […] At the experimental endpoint, intracellular ZIKV RNA (B) was determined through real-time RT-PCR in total cellular RNA. […] Extracellular ZIKV RNA [(C), in log scale] was determined through real-time RT-PCR using total RNA isolated from cell-free supernatants. ZIKV virion levels (in log scale) were determined by adding cell-free culture supernatants to Vero cells and overlaid with Agar gel in viral PFA (D). Viral plaques were manually counted and calculated as PFU/mL (E). * p < 0.05, ** p < 0.01, and *** p < 0.001, as compared with the ZIKV group without peptide treatment (ANOVA, N = 3).

Row | SMILES | Extracellular ZIKV RNA in culture supernatants, reduced to % of untreated (peptide 2 µM) | Extracellular ZIKV RNA in culture supernatants, reduced to % of untreated (peptide 10 µM)
1 | CC[C@H](C)[C@H](NC(=O)[C@H](CCCCN)NC(=O)[C@H](CCCCN)NC(=O)[C@H](Cc1ccccc1)NC(=O)[C@H](CC(C)C)NC(=O)[C@H](CCCCN)NC(=O)[C@H](CCCCN)NC(=O)[C@H](Cc1ccccc1)NC(=O)[C@H](CCCCN)NC(=O)[C@H](CCCCN)NC(=O)[C@H](CCCNC(=N)N)NC(=O)[C@H](Cc1ccccc1)NC(=O)[C@H](CCCNC(=N)N)NC(=O)[C@H](CCCCN)NC(=O)[C@H](Cc1ccccc1)NC(=O)[C@H](CCCNC(=N)N)NC(=O)CN)C(=O)N[C@@H](CO)C(=O)O [BMAP-18] (H-GRFKRFRKKFKKLFKKIS-OH; N-terminus and C-terminus assumed) | 5.6% | 1.3%
2 | CC[C@H](C)[C@H](NC(=O)[C@H](CCCNC(=N)N)NC(=O)[C@H](CCC(N)=O)NC(=O)[C@@H](NC(=O)[C@@H](NC(=O)[C@H](CCCNC(=N)N)NC(=O)[C@H](CCCCN)NC(=O)[C@H](Cc1ccccc1)NC(=O)CN)[C@@H](C)CC)C(C)C)C(=O)N[C@@H](CCCCN)C(=O)N[C@@H](CC(=O)O)C(=O)N[C@@H](Cc1ccccc1)C(=O)N[C@@H](CC(C)C)C(=O)N[C@@H](CCCNC(=N)N)C(=O)N[C@@H](CC(N)=O)C(=O)N[C@@H](CC(C)C)C(=O)N[C@H](C(N)=O)C(C)C [GF-17] (H-GFKRIVQRIKDFLRNLV-NH2; N-terminus and C-terminus assumed) | 16.7% | 0.1%
